Experimental data taken from the supplement of paper PMC11061612.

How the values were obtained:
Experiment in all cases: Bliss excess, mean over the matrix (fraction); higher = more synergy
[1] = test system: COLO-320-HSR (Colorectal Carcinoma)
Procedure, shortened: (§1)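 After 24 hours at 37°C and 5% CO2 in 1536-well plates, cells in DMEM/F12 or RPMI plus 10% FBS received two-drug dose matrices for 72 hours. Viability came from CellTiter-Glo 2.0 luminescence and was scaled as inhibition, anchored at 0 by vehicle wells and at 1 by blank wells. Combination Emax is taken as the second-highest inhibition in the matrix, and Bliss excess as the observed combination effect less EA + EB − EA·EB, with EA and EB the single-agent effects.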

[2] = test system: SISO (Cervical Carcinoma)
Procedure, shortened: as §1

IGR-37 (Melanoma) = test system: IGR-37 (Melanoma)
Procedure, shortened: as §1

PA-1 (Ovarian Carcinoma) = test system: PA-1 (Ovarian Carcinoma)
Procedure, shortened: as §1

[3] = test system: ONS-76 (Other Solid Carcinomas)
Procedure, shortened: as §1

[4] = test system: NCI-H1650 (Lung Adenocarcinoma)
Procedure, shortened: as §1

[5] = test system: CAL-29 (Bladder Carcinoma)
Procedure, shortened: as §1

[6] = test system: OS-RC-2 (Kidney Carcinoma)
Procedure, shortened: as §1

[7] = test system: PANC-10-05 (Pancreatic Carcinoma)
Procedure, shortened: as §1

GI-ME-N (Neuroblastoma) = test system: GI-ME-N (Neuroblastoma)
Procedure, shortened: as §1

LN-405 (Glioblastoma) = test system: LN-405 (Glioblastoma)
Procedure, shortened: as §1

[8] = test system: KARPAS-422 (B-Cell Non-Hodgkin's Lymphoma)
Procedure, shortened: as §1

[9] = test system: NCI-H2066 (Squamous Cell Lung Carcinoma)
Procedure, shortened: as §1

ARH-77 (Non-Cancerous) = test system: ARH-77 (Non-Cancerous)
Procedure, shortened: as §1

[10] = test system: BICR22 (Oral Cavity Carcinoma)
Procedure, shortened: as §1

[11] = test system: CAPAN-2 (Pancreatic Carcinoma)
Procedure, shortened: as §1

[12] = test system: COLO-824 (Breast Carcinoma)
Procedure, shortened: as §1

[13] = test system: SK-MES-1 (Squamous Cell Lung Carcinoma)
Procedure, shortened: as §1

[14] = test system: NCI-H64 (Small Cell Lung Carcinoma)
Procedure, shortened: as §1

A498 (Kidney Carcinoma) = test system: A498 (Kidney Carcinoma)
Procedure, shortened: as §1

Row | SMILES | Bliss excess [1] | Bliss excess [2] | Bliss excess (IGR-37 (Melanoma)) | Bliss excess (PA-1 (Ovarian Carcinoma)) | Bliss excess [3] | Bliss excess [4] | Bliss excess [5] | Bliss excess [6] | Bliss excess [7] | Bliss excess (GI-ME-N (Neuroblastoma)) | Bliss excess (LN-405 (Glioblastoma)) | Bliss excess [8] | Bliss excess [9] | Bliss excess (ARH-77 (Non-Cancerous)) | Bliss excess [10] | Bliss excess [11] | Bliss excess [12] | Bliss excess [13] | Bliss excess [14] | Bliss excess (A498 (Kidney Carcinoma))
1 | COc1nnc2ccc(N3CCC(c4ccc(OCCN5CCN(C)C(=O)[C@H]5C)cc4)CC3)nn12 [AZD5153] + Cn1cnc2c(F)c(Nc3ccc(Br)cc3Cl)c(C(=O)NOCCO)cc21 [Selumetinib] (first compound max 1 µM, 7x7, partner max 10 µM) | -0.0095 | -0.008 | 0.0624 | 0.0002 | -0.0127 | -0.0155 | 0.0393 | -0.0235 | -0.0736 | -0.0636 | -0.0171 | -0.0311 | -0.0123 | -0.0251 | 0.0497 | 0.0202 | 0.007 | -0.0219 | 0.0021 | 0.0016
2 | Cc1c2c(nn1C)CSCc1cc(n(C)n1)CSc1cc(c3ccccc3c1)OCCCc1c(C(=O)O)n(C)c3c-2c(Cl)ccc13 [AZD5991] + C=CCn1c(=O)c2cnc(Nc3ccc(N4CCN(C)CC4)cc3)nc2n1-c1cccc(C(C)(C)O)n1 [AZD1775] (first compound max 1 µM, partner max 1 µM) | 0.045 | -0.0417 | -0.0015 | -0.0288 | -0.0214 | 0.0047 | 0.0878 | -0.0046 | -0.0551 | 0.0646 | 0.0077 | -0.0192 | -0.0231 | -0.0418 | -0.0107 | 0.0292 | -0.0593 | -0.0183 | -0.0187 | 0.0231
3 | Cc1c2c(nn1C)CSCc1cc(n(C)n1)CSc1cc(c3ccccc3c1)OCCCc1c(C(=O)O)n(C)c3c-2c(Cl)ccc13 [AZD5991] + CC1(C)CCC(CN2CCN(c3ccc(C(=O)NS(=O)(=O)c4ccc(NCC5CCOCC5)c([N+](=O)[O-])c4)c(Oc4cnc5[nH]ccc5c4)c3)CC2)=C(c2ccc(Cl)cc2)C1 [Venetoclax] (first compound max 1 µM, 7x7, partner max 1 µM) | 0.0419 | -0.0181 | -0.0167 | 0.0664 | -0.0214 | -0.0246 | 0.0101 | -0.0686 | -0.0506 | -0.0408 | 0.0082 | 0.205 | -0.0303 | 0.0087 | 0.0003 | -0.0292 | 0.11 | -0.0302 | 0.0308 | -0.108
4 | Cc1c2c(nn1C)CSCc1cc(n(C)n1)CSc1cc(c3ccccc3c1)OCCCc1c(C(=O)O)n(C)c3c-2c(Cl)ccc13 [AZD5991] + CCN(CCO)CCCOc1ccc2c(Nc3cc(CC(=O)Nc4cccc(F)c4)[nH]n3)ncnc2c1 [AZD2811] (first compound max 1 µM, 7x7, partner max 1 µM) | 0.0198 | 0.108 | 0.0533 | 0.0489 | 0.0619 | 0.0357 | 0.072 | -0.0634 | -0.0242 | 0.0116 | 0.0122 | 0.0918 | 0.0154 | -0.0146 | 0.0418 | -0.0133 | -0.0156 | 0.0098 | 0.144 | 0.0054
5 | Cc1c2c(nn1C)CSCc1cc(n(C)n1)CSc1cc(c3ccccc3c1)OCCCc1c(C(=O)O)n(C)c3c-2c(Cl)ccc13 [AZD5991] + CN(C)CCCOc1ccc(-c2ccc3ncc4c(c3c2)n(C2CCOCC2)c(=O)n4C)cn1 [AZD0156] (first compound max 1 µM, 7x7, partner max 1 µM) | 0.0531 | 0.0222 | 0.0148 | 0.004 | -0.0291 | -0.0398 | 0.0308 | -0.0096 | -0.0048 | -0.04 | -0.0026 | -0.0675 | -0.0084 | -0.0423 | 0.016 | 0.0062 | -0.004 | -0.0029 | -0.0708 | -0.0274
6 | Cc1c2c(nn1C)CSCc1cc(n(C)n1)CSc1cc(c3ccccc3c1)OCCCc1c(C(=O)O)n(C)c3c-2c(Cl)ccc13 [AZD5991] + C[C@@H]1COCCN1C2=NC(=NC(=C2)C3(CC3)[S@](=N)(=O)C)C4=C5C=CNC5=NC=C4 [AZD6738] (first compound max 1 µM, 7x7, partner max 10 µM) | 0.0363 | 0.0628 | 0.124 | 0.0702 | -0.0017 | 0.0392 | 0.0409 | 0.0211 | 0.0415 | 0.0481 | 0.0493 | -0.0209 | 0.0148 | -0.014 | 0.0224 | 0.0543 | -0.009 | -0.0119 | 0.0193 | 0.107
7 | Cc1c2c(nn1C)CSCc1cc(n(C)n1)CSc1cc(c3ccccc3c1)OCCCc1c(C(=O)O)n(C)c3c-2c(Cl)ccc13 [AZD5991] + C[C@@H](Nc1cc(F)cc(F)c1)c1cc(C(=O)N(C)C)cc2c(=O)cc(N3CCOCC3)oc12 [AZD8186] (first compound max 1 µM, 7x7, partner max 3 µM) | -0.0004 | -0.0067 | 0.038 | 0.049 | -0.0517 | 0.0221 | 0.0096 | -0.0226 | -0.0473 | -0.0631 | 0.028 | -0.0143 | -0.0445 | -0.0404 | -0.0014 | 0.023 | 0.0043 | 0.052 | -0.0067 | -0.0252
8 | Cc1c2c(nn1C)CSCc1cc(n(C)n1)CSc1cc(c3ccccc3c1)OCCCc1c(C(=O)O)n(C)c3c-2c(Cl)ccc13 [AZD5991] + Cc1cc2ncnn2cc1Nc1ncc2c(n1)n(C1CCOCC1)c(=O)n2C [AZD7648] (first compound max 1 µM, 7x7, partner max 10 µM) | -0.0184 | -0.0221 | 0.0039 | -0.0774 | -0.0236 | -0.0408 | 0.014 | -0.068 | -0.0758 | -0.0863 | -0.0439 | -0.0008 | -0.0141 | -0.024 | 0.0158 | 0.0141 | -0.0187 | -0.0471 | -0.0186 | -0.0249
9 | Cc1c2c(nn1C)CSCc1cc(n(C)n1)CSc1cc(c3ccccc3c1)OCCCc1c(C(=O)O)n(C)c3c-2c(Cl)ccc13 [AZD5991] + Cn1cnc2c(F)c(Nc3ccc(Br)cc3Cl)c(C(=O)NOCCO)cc21 [Selumetinib] (first compound max 1 µM, 7x7, partner max 3 µM) | 0.0173 | -0.0134 | 0.0044 | 0.0085 | 0.0319 | -0.0083 | 0.0436 | -0.0557 | -0.0186 | -0.06 | 0.003 | -0.0157 | 0.0459 | -0.0069 | 0.127 | 0.0129 | -0.0049 | 0.0132 | -0.026 | 0.0133
10 | C[C@@H]1COCCN1c1cc(C2([S@](C)(=N)=O)CC2)nc(-c2ccnc3[nH]ccc23)n1 [AZD6738] + O=C(c1cc(Cc2n[nH]c(=O)c3ccccc23)ccc1F)N1CCN(C(=O)C2CC2)CC1 [Olaparib] (first compound max 10 µM, 7x7, partner max 10 µM) | -0.0357 | 0.0221 | -0.0475 | 0.0046 | -0.0284 | -0.0152 | -0.0405 | -0.0085 | -0.0133 | -0.0252 | 0.0005 | -0.0539 | -0.0682 | -0.0297 | 0.003 | -0.0255 | -0.0314 | -0.0324 | -0.0686 | -0.0403
11 | Cc1cc2ncnn2cc1Nc1ncc2c(n1)n(C1CCOCC1)c(=O)n2C [AZD7648] + C=CCn1c(=O)c2cnc(Nc3ccc(N4CCN(C)CC4)cc3)nc2n1-c1cccc(C(C)(C)O)n1 [AZD1775] (first compound max 10 µM, partner max 1 µM) | -0.0082 | -0.0005 | -0.0007 | -0.0024 | -0.0046 | 0.0097 | -0.0241 | -0.0474 | -0.0429 | 0.0213 | -0.0402 | -0.187 | -0.105 | -0.0575 | -0.0323 | 0.0132 | -0.0448 | 0.0167 | -0.0585 | 0.0207
12 | Cc1cc2ncnn2cc1Nc1ncc2c(n1)n(C1CCOCC1)c(=O)n2C [AZD7648] + CCN(CCO)CCCOc1ccc2c(Nc3cc(CC(=O)Nc4cccc(F)c4)[nH]n3)ncnc2c1 [AZD2811] (first compound max 10 µM, 7x7, partner max 1 µM) | 0.0372 | 0.0662 | 0.0315 | 0.0239 | 0.0443 | 0.0142 | 0.0545 | 0.0201 | -0.0341 | 0.0032 | -0.0206 | -0.0417 | -0.0318 | 0.0348 | 0.0239 | -0.0525 | 0.0116 | -0.0011 | 0.0392 | -0.0049
13 | Cc1cc2ncnn2cc1Nc1ncc2c(n1)n(C1CCOCC1)c(=O)n2C [AZD7648] + CN(C)CCCOc1ccc(-c2ccc3ncc4c(c3c2)n(C2CCOCC2)c(=O)n4C)cn1 [AZD0156] (first compound max 10 µM, 7x7, partner max 1 µM) | 0.0391 | 0.0339 | 0.0285 | -0.0117 | -0.0014 | -0.0133 | -0.0282 | 0.0028 | -0.0059 | 0.0015 | -0.0215 | -0.138 | -0.026 | -0.049 | -0.0192 | -0.0168 | -0.0145 | 0.0394 | -0.0367 | -0.0212
14 | Cc1cc2ncnn2cc1Nc1ncc2c(n1)n(C1CCOCC1)c(=O)n2C [AZD7648] + C[C@@H]1COCCN1C2=NC(=NC(=C2)C3(CC3)[S@](=N)(=O)C)C4=C5C=CNC5=NC=C4 [AZD6738] (first compound max 10 µM, 7x7, partner max 10 µM) | -0.0398 | 0.0202 | -0.0228 | -0.0509 | -0.0282 | 0.0308 | -0.012 | -0.0077 | 0.0487 | 0.0346 | -0.0881 | -0.0856 | 0.025 | -0.0463 | 0.0114 | 0.022 | 0.0794 | -0.0084 | -0.0003 | 0.0313
15 | Cc1cc2ncnn2cc1Nc1ncc2c(n1)n(C1CCOCC1)c(=O)n2C [AZD7648] + O=C(c1cc(Cc2n[nH]c(=O)c3ccccc23)ccc1F)N1CCN(C(=O)C2CC2)CC1 [Olaparib] (first compound max 10 µM, 7x7, partner max 10 µM) | -0.0169 | -0.0226 | -0.057 | -0.0072 | -0.0419 | -0.0494 | -0.0288 | -0.0486 | -0.0426 | -0.0382 | -0.0421 | -0.0358 | -0.0624 | 0.0393 | -0.0548 | -0.0757 | -0.0115 | -0.0323 | -0.0384 | -0.0268
